Data from patent EP1257544B1, “PIPERAZINE AND PIPERIDINE DERIVATIVES FOR TREATMENT OR PREVENTION OF NEURONAL DAMAGE” (VERTEX PHARMACEUTICALS INCORPORATED, priority 2000, dated 2001).
Structures can show the parent of a compound that is named as a salt.

The compounds below were run on Dissociated VM cells (assay: Neuroprotection Assay (NMDA-induced neuroexcitotoxic injury, high affinity 3H-dopamine uptake)). Conditions: embryonic day 15 rat ventral mesencephalic cultures, NMDA (100-400 µM) for 20 hours.
Type: cell-based, Sprague-Dawley rat
Source text: The neuroprotective activity of the compounds of this invention may be assayed using rat embryo ventral mesencephalic cells in culture which are subsequently exposed to the glutamate receptor agonist NMDA. This assay is described in detail in the example section.
The ventral mesencephalic region was dissected out of embryonic day 15 Sprague-Dawley rat embryos (Harlan), dissociated into single cell suspension by a combination of trypsinization and trituration (Costantini et al., Neurobiol Dis., pp. 97-106 (1998). Dissociated VM cells were plated into poly-L-ornithine-coated 96-well plates at a density of 85,000 cells/well in 100 uL of DMEM supplemented with 18% heat-inactivated horse serum, 0.24% glucose, 2 mM glutamine and 50 u/ml pernicillin/streptomycin and incubated in a 5% CO2 incubator. After one day in culture (DIV1), the medium was replaced with 100 µL of a defined medium (DMEM supplemented with 1x N2 cocktail (Gibco-BRL), 0.12% glucose, 2 mM glutamine, and 50 units/ml penicillin/streptomycin) containing DMSO or various concentrations of the compounds of this invention. On DIV5, neuroexcitotoxic injury was induced by the addition of various concentrations of the glutamate receptor agonist NMDA (100-400 µM). Cultures were incubated with the neurotoxin for 20 hours and the effects of neurophilin compounds were assessed using high affinity ^3H-dopamine uptake according to a procedure published by Park and Mytilineou [Brain Res., 599, pp. 83-97 (1992)].

`CCN1CCCC[C@H]1C(=O)N1CCN(C(c2ccccc2)c2ccccc2)CC1` [Compound 1, 1-[4-(1,1-Diphenylmethyl)piperazin-1-yl]-1-((S)-1-ethylpiperidin-2-yl)methanone] and `CCN1CCCC[C@@H]1C(=O)N1CCN(C(c2ccccc2)c2ccccc2)CC1` [Compound 15, 1-[4-(1,1-Diphenylmethyl)piperazin-1-yl]-1-((R)-1-ethylpiperidin-2-yl)methanone] cannot be ordered by EC50: < 100 nM for the first, < 100 nM for the second.

First: CCN1CCCC[C@H]1C(=O)N1CCN(Cc2ccccc2)CC1 [Compound 16, 1-(4-Benzylpiperazin-1-yl)-1-((S)-1-ethylpiperidin-2-yl)methanone]
Second: CCN1CCCC[C@H]1C(=O)N1CCN(Cc2cccnc2)CC1 [Compound 36, ((2S)-1-Ethylpiperidin-2-yl)-(4-pyridin-3-ylmethylpiperazin-1-yl)-methanone trihydrochloride]
The EC50 of the first is lower: 100 to 500 nM for the first, > 500 nM for the second. The first is the more potent here.

`O=C([C@@H]1CCCCN1Cc1ccccc1)N1CCN(C(c2ccccc2)c2ccccc2)CC1` [Compound 20, 1-((S)-1-Benzyl-piperidin-2-yl)-1-[4-(1,1-diphenyl-methyl)-piperazin-1-yl]-methanone] and `O=C([C@@H]1CCCCN1Cc1ccc(F)cc1)N1CCN(C(c2ccccc2)c2ccccc2)CC1` [Compound 21, 1-[4-(1,1-Diphenyl-methyl)-piperazin-1-yl]-1-[(S)-1-(4-fluoro-benzyl)-piperidin-2-yl]-methanone] cannot be ordered by EC50: < 100 nM for the first, < 100 nM for the second.

First: CCN1CCCC[C@H]1C(=O)N1CCN(C(c2ccc(F)cc2)c2ccc(F)cc2)CC1 [Compound 25, 1-{4-[1,1-Bis-(4-fluorophenyl)methyl]-piperazin-1-yl}-1-((S)-1-ethylpiperidin-2-yl)methanone]
Second: CCN1CCCC[C@@H]1C(=O)N1CCN(C(c2ccc(F)cc2)c2ccc(F)cc2)CC1 [Compound 40, {4-[Bis-(4-fluorophenyl)methyl]-piperazin-1-yl}-((2R)-1-ethylpiperidin-2-yl)-methanone]
The EC50 of the first is lower: 100 to 500 nM for the first, > 500 nM for the second.

First: CCN1CCCC[C@H]1C(=O)N1CCC(Cc2ccccc2)CC1 [Compound 26, 1-(4-Benzylpiperidin-1-yl)-1-((S)-1-ethylpiperidin-2-yl)methanone]
Second: CCN1CCC[C@H]1C(=O)N1CCC(Cc2ccccc2)CC1 [Compound 53, (4-Benzylpiperidin-1-yl)-((2S)-1-ethylpyrrolidin-2-yl)-methanone hydrochloride]
The EC50 of the first is lower: < 100 nM for the first, 100 to 500 nM for the second.

Compared with `CCN1CCCC[C@H]1C(=O)N1CCC[C@H]1C(c1ccccc1)c1ccccc1` [Compound 27, 1-[(S)-2-(1,1-Diphenylmethyl)-pyrrolidin-1-yl]-1-((S)-1-ethyl-piperidin-2-yl)-methanone], `CCN1CCCC[C@H]1C(=O)N1CCC(C(c2ccccc2)c2ccccc2)CC1` [Compound 44, (4-Benzhydrylpiperidin-1-yl)-((2S)-1-ethylpiperidin-2-yl)-methanone hydrochloride] is lower in EC50: > 500 nM for the first, < 100 nM for the second. The second is the more potent here.

`O=C([C@@H]1C[C@@H](O)CN1Cc1ccccc1)N1CCC(Cc2ccccc2)CC1` [Compound 30, ((2S,4R) -1-Benzyl-4-hydroxypyrrolidin-2-yl)-(4-benzylpiperidin-1-yl)-methanone] and `O=C([C@@H]1CCCN1Cc1ccccc1)N1CCC(Cc2ccccc2)CC1` [Compound 52, (4-Benzylpiperidin-1-yl)-((2S)-1-benzylpyrrolidin-2-yl)-methanone hydrochloride] cannot be ordered by EC50: < 100 nM for the first, < 100 nM for the second.

First: CCN1CCCC[C@H]1C(=O)N1CCC(Cc2ccccc2)C1 (stereo partly drawn) [Compound 35, (3-Benzylpyrrolidin-1-yl)-((2S)-1-ethylpiperidin-2-yl)-methanone]
Second: CCN1CCCC[C@H]1C(=O)N1CCC(Cc2ccc(F)cc2)CC1 [Compound 47, ((2S)-1-Ethylpiperidin-2-yl)-[4-(4-fluorobenzyl)-piperidin-1-yl]-methanone hydrochloride]
The EC50 of the first is higher: 100 to 500 nM for the first, < 100 nM for the second.

`CCN1CCCC[C@H]1C(=O)N1CCN(Cc2ccncc2)CC1` [Compound 37, ((2S)-1-Ethylpiperidin-2-yl)-(4-pyridin-4-ylmethylpiperazin-1-yl)-methanone trihydrochloride] and `CCN1CCCC[C@H]1C(=O)N1CCN(Cc2ccccn2)CC1` [Compound 38, ((2S)-1-Ethylpiperidin-2-yl)-(4-pyridin-2-ylmethylpiperazin-1-yl)-methanone trihydrochloride] cannot be ordered by EC50: > 500 nM for the first, > 500 nM for the second.

`CCN1CCCC[C@H]1C(=O)N1CCN(C(c2ccccc2)c2ccc(Cl)cc2)CC1` (stereo partly drawn) [Compound 41, {4-[(4-Chlorophenyl)phenylmethyl]-piperazin-1-yl}-((2S)-1-ethylpiperidin-2-yl)-methanone dihydrochloride] and `COc1ccc(CN2CCCC[C@H]2C(=O)N2CCN(C(c3ccccc3)c3ccccc3)CC2)cc1` [Compound 60, (4-Benzhydrylpiperazin-1-yl)-[(2S)-1-(4-methoxybenzyl)-piperidin-2-yl]-methanone dihydrochloride] cannot be ordered by EC50: < 100 nM for the first, < 100 nM for the second.

`CCN1CCCC[C@H]1C(=O)N1CCN(C(c2ccccc2)c2nc(OC)cc(OC)n2)CC1` (stereo partly drawn) [Compound 43] and `CCN1CCC[C@H]1C(=O)N1CCN(C(c2ccc(F)cc2)c2ccc(F)cc2)CC1` [Compound 50, 4-[Bis-(4-fluorophenyl)methyl]piperazin-1-yl}-((2S)-1-ethylpyrrolidin-2-yl)-methanone dihydrochloride] fall in the same range of EC50: 100 to 500 nM for the first, 100 to 500 nM for the second.

First: CCN1CCCC[C@H]1C(=O)N1CCC(C(=O)c2ccc(F)cc2)CC1 [Compound 45, ((2S)-1-Ethylpiperidin-2-yl)-[4-(4-fluorobenzoyl)-piperidin-1-yl]-methanone]
Second: CCN1CCCC[C@H]1C(=O)N1CCC(C(O)c2ccc(F)cc2)CC1 (stereo partly drawn) [Compound 46, ((2S)-1-Ethylpiperidin-2-yl)-{4-[(4-fluorophenyl)hydroxymethyl]-piperidin-1-yl}-methanone]
The EC50 of the first is lower: 100 to 500 nM for the first, > 500 nM for the second.

`O=C([C@@H]1CCCN1Cc1ccccc1)N1CCC(Oc2ccc(F)cc2)CC1` [Compound 48, ((2S)-1-Benzylpyrrolidin-2-yl)-[4-(4-fluorophenoxy)-piperidin-1-yl] -methanone hydrochloride] and `O=C([C@@H]1CCCN1Cc1ccccc1)N1CCC(Cc2ccc(F)cc2)CC1` [Compound 49, ((2S)-1-Benzylpyrrolidin-2-yl)-[4-(4-fluorobenzyl)-piperidin-1-yl]-methanone hydrochloride] cannot be ordered by EC50: < 100 nM for the first, < 100 nM for the second.

`O=C([C@H]1CCCN1Cc1ccccc1)N1CCC(Cc2ccccc2)CC1` [Compound 55, (4-Benzylpiperidin-1-yl)-((2R)-1-benzylpyrrolidin-2-yl)methanone hydrochloride] and `O=C([C@@H]1CCCN1CCc1ccccc1)N1CCC(Cc2ccccc2)CC1` [Compound 57, (4-Benzylpiperidin-1-yl)-((2S)-1-phenethylpyrrolidin-2-yl)-methanone] fall in the same range of EC50: 100 to 500 nM for the first, 100 to 500 nM for the second.

Compared with `O=C([C@@H]1CCCN1Cc1ccc(F)cc1)N1CCC(Cc2ccccc2)CC1` [Compound 58, (4-Benzylpiperidin-1-yl)-[(2S)-1-(4-fluorobenzyl)-Pyrrolidin-2-yl]-methanone hydrochloride], `O=C([C@@H]1CCCN1CCCc1ccccc1)N1CCC(Cc2ccccc2)CC1` [Compound 59, (4-Benzylpiperidin-1-yl)-[(2S)-1-(3-phenylpropyl) - pyrrolidin-2-yl]-methanone hydrochloride] is higher in EC50: < 100 nM for the first, 100 to 500 nM for the second. The first is the more potent here.
